Values of other authors in patent US20160008334A1, “Preparations for the Treatment of Sleep-Related Respiratory Disorders” (priority 2013, published 2016).

Details: compared with the barbiturate phenobarbital; one study (drugbank.ca DB00366)

## CN(C)CCOC(C)(c1ccccc1)c1ccccn1 (stereo not shown) [doxylamine succinate]
  effectiveness for use as a sedative: more effective than the barbiturate phenobarbital
